Where “and” joins values, the source holds several entries; their conditions need not be identical. Equal values may be shown once.
Legend:
mGluR2 [1] = biological target: mGluR2 (Mus musculus, UniProt Q14BI2, A548F); assay: Live-cell FRET, azi-CRD (cysteine-rich domain) sensor in HEK293T cells; settings: for Mean normalized FRET response, azi-CRD PAM DRC: glutamate + 5μM LY487379, maximal response normalized to 1mM glutamate
mGluR2 [2] = biological target: mGluR2 (Mus musculus, UniProt Q14BI2, INS715F); assay: Live-cell FRET, azi-ECL2 (7TM domain, extracellular loop 2) sensor in HEK293T cells; settings: for Mean normalized azi-ECL2 FRET response: glutamate + 5μM modulator, maximal response normalized to 1mM glutamate;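 on all read-outs here: Cy3/Cy5 click-labeled sensor, whole-membrane ROIs per cell, apparent FRET after bleed-through correction, ΔFRET as treatment minus pre-treatment signal, at room temperature, at least three biological replicates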
Chain of mGluR2 (Mus musculus, UniProt Q14BI2, INS715F) (Q14BI2 with tags, fused parts or gaps INS715F): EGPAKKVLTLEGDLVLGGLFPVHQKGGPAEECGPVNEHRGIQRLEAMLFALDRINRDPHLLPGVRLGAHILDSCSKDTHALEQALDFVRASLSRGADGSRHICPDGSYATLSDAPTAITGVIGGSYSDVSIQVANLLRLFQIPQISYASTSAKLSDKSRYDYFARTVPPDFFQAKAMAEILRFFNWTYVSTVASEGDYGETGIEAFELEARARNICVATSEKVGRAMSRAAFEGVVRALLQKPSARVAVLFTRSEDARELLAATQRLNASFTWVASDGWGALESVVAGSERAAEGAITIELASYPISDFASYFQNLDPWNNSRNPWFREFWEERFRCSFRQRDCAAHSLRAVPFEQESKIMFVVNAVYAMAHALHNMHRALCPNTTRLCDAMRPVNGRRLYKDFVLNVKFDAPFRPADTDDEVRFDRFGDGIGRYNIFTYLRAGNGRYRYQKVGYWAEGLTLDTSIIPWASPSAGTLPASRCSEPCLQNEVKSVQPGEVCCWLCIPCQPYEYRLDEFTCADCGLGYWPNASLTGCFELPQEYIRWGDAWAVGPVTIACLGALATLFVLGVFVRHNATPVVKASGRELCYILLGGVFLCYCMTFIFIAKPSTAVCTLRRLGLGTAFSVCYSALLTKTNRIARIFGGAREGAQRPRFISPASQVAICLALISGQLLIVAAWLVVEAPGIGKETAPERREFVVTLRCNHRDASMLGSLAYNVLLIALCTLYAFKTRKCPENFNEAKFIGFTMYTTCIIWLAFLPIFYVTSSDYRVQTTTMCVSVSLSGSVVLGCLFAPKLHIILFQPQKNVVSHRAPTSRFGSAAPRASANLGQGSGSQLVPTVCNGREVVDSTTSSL

mGluR2 [3] = biological target: T1, mGluR2 (Mus musculus, UniProt Q14BI2); assay: Functional calcium imaging, SNAP-mGluR2 (no FLAG-tag) with chimeric G protein Gqo5 in HEK293T cells; assay type: cell-based; design: Full length mGluR2 construct with an amber codon (TAG) mutation of amino acid A548 (azi-CRD) or N-terminal SNAP-tag (SNAP-mGluR2); host or cells: HEK293T; settings: modulator alone; precluded analysis of glutamate potency and efficacy
T1 sequence (Q14BI2 19-872): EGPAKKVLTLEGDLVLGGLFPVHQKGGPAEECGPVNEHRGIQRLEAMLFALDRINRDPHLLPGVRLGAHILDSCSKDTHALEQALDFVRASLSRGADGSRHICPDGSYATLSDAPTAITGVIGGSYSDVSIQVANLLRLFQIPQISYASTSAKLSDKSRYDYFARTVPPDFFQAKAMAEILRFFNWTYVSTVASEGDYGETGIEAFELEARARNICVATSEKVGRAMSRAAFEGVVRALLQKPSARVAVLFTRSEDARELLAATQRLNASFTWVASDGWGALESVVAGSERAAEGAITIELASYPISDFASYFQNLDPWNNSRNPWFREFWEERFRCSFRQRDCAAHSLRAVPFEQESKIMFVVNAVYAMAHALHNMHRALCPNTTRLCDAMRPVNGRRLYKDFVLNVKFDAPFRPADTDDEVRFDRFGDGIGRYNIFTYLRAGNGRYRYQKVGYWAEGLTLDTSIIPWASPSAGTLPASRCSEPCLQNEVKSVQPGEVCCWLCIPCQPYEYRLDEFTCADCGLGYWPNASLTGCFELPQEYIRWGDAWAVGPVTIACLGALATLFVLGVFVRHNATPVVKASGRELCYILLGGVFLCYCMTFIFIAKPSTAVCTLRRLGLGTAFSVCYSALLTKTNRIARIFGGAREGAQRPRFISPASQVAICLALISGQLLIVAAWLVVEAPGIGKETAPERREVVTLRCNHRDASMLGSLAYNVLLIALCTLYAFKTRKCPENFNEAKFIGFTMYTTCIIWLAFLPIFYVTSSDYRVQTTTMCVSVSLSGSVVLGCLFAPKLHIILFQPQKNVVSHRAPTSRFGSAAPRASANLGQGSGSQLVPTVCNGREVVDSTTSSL

mGluR2 [4] = biological target: T1, mGluR2; assay: Live-cell FRET, SNAP-m2 (VFT domain) inter-subunit sensor in HEK293T cells; settings: for SNAP-m2 FRET response (PAM DRC) / SNAP-m2 FRET response (PAM DRC), Mean: Glutamate + 5μM LY487379; for SNAP-m2 FRET response (PAM DRC): individual cells, normalized to 1mM glutamate;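 on all read-outs here: apparent FRET efficiency from whole-membrane ROIs of single cells, corrected for donor bleed-through and background, ΔFRET as treatment minus pretreatment signal, recorded at room temperature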
[5] = 5μM LY487379, ([1 mM glutamate + modulator] - [1 mM glutamate]) × 100

Chain of mGluR2 (Mus musculus, UniProt Q14BI2, A548F) (Q14BI2 19-872 A548F): as the sequence (Q14BI2 19-872) above, with A530F counted along it

How did the “azi-CRD - ΔEfficacy, Mean ΔEfficacy” value (mGluR2 [1]; [5]) turn out when COc1ccccc1Oc1ccc(N(Cc2cccnc2)S(=O)(=O)CC(F)(F)F)cc1 [LY487379, N -(4-(2-Methoxyphenoxy)phenyl)-N -(2,2,2− trifluoroethylsulfonyl)pyrid-3-ylmethylamine] was run?
Its value is 56.4462.

And the “azi-CRD - ΔEfficacy, individual cell responses” value (mGluR2 [1]; 5μM LY487379, single cells)?
The value was 81.7927 and 91.1647 and 102.83 and 105.34 and 78.0041 and 66.6667 and 72.6804 and 69.5464 and 76.2911 and 41.9214 and 42.0188 and 53.8462 and 0 and 21.4575 and 34.4595 and 42.2449 and 30.2041 and 33.2258 and 28.7834.

And the “Hill slope of glutamate titration” value (mGluR2 [1]; azi-CRD sensor, + 5 μM modulator)?
Its value is 0.91.

What about the “Mean max response (normalized max ΔFRET)” value (mGluR2 [1]; azi-CRD, 1 mM glutamate + 5 μM modulator, normalized to 1 mM glutamate) of the same compound?
Its value is 1.56.

What about the “Mean ΔPotency” value (mGluR2 [1]; azi-CRD, 5μM modulator, (([modulator + glutamate]EC50 – [glutamate] EC50)/[glutamate] EC50) × 100) of the same compound?
Its value is -61.3748.

What about the “ΔPotency, individual cell” value (mGluR2 [1]; azi-CRD, 5μM modulator, calculated from individual cell responses) of the same compound?
Its value is -86.3622 and -82.4274 and -82.7128 and -78.2764 and -89.1123 and -88.282 and -87.867 and -88.628 and -87.1232 and -72.2401 and -70.8565 and -64.63 and -55.982 and -66.7055 and -27.5303 and -19.9202 and -46.4693 and -21.7362 and -27.2709 and -11.7911 and -36.6107 and -57.7116.

And the “Mean normalized FRET response, azi-CRD PAM DRC” value (“Mean normalized FRET response” for short) (mGluR2 [1]; log[Glutamate] (M) -3)?
Its value is 1.564.

And the “Mean normalized FRET response” value (mGluR2 [1]; log[Glutamate] (M) -4.1549)?
Its value is 1.506.

And the “Mean normalized FRET response” value (mGluR2 [1]; log[Glutamate] (M) -4.52288)?
Its value is 1.431.

And the “Mean normalized FRET response” value (mGluR2 [1]; log[Glutamate] (M) -5)?
The value was 1.21.

And the “Mean normalized FRET response” value (mGluR2 [1]; log[Glutamate] (M) -5.39794)?
Its value is 0.9243.

And the “Mean normalized FRET response” value (mGluR2 [1]; log[Glutamate] (M) -5.82391)?
The value was 0.548.

What about the “Mean normalized FRET response” value (mGluR2 [1]; log[Glutamate] (M) -6.52288) of the same compound?
Its value is 0.2035.

What about the “Mean normalized FRET response” value (mGluR2 [1]; log[Glutamate] (M) -7) of the same compound?
Its value is 0.1104.

What about the “Mean normalized FRET response” value (mGluR2 [1]; log[Glutamate] (M) -7.30103) of the same compound?
Its value is 0.08348.

What about the “Mean normalized FRET response” value (mGluR2 [1]; log[Glutamate] (M) -7.69897) of the same compound?
Its value is 0.

And the “azi-ECL2 - ΔEfficacy, Mean ΔEfficacy” value (mGluR2 [2]; [5])?
The value was 24.615.

What about the “Mean ΔPotency” value (mGluR2 [2]; 5μM modulator, (([modulator + glutamate]EC50 – [glutamate] EC50)/[glutamate] EC50) × 100) of the same compound?
Its value is -30.8994.

And the “ΔPotency, individual cell responses” value (mGluR2 [2]; 5μM modulator, single cells, (([modulator + glutamate]EC50 – [glutamate] EC50)/[glutamate] EC50) × 100)?
Its value is -50.558 and -25.4476 and -23.8904 and -47.6382 and -34.9857 and -54.4511 and -26.0316 and -30.3706 and -10.8251 and 8.313 and -4.368 and -31.1486 and -23.7197 and -38.0027 and -24.5685 and -37.4665 and -50.1273 and -31.7846 and -24.8874 and -46.4706.

What about the “ΔEfficacy, individual cell responses” value (mGluR2 [2]; 5μM modulator, single cells, ([1 mM glutamate + modulator] - [1 mM glutamate]) × 100) of the same compound?
The value was 52.1008 and 4.706 and 3.279 and -3.644 and 40.8403 and 19.2658 and 55.7571.

What about the “Mean max response (normalized max ΔFRET)” value (mGluR2 [2]; azi-ECL2, 1 mM glutamate + 5 μM modulator, normalized to 1 mM glutamate) of the same compound?
The value was 1.25.

What about the “Hill slope of glutamate titration” value (mGluR2 [2]; azi-ECL2 sensor, + 5 μM modulator) of the same compound?
Its value is 0.98.

And the “Live-cell FRET max response normalized to 1mM glutamate” value (mGluR2 [2]; azi-ECL2 sensor, Glutamate + 5μM LY487379, individual values (N=7))?
The value was 1.4084 and 1.193 and 1.558 and 1.521 and 1.047 and 1.033 and 0.9636.

What about the “Mean normalized azi-ECL2 FRET response” value (mGluR2 [2]; log[Glutamate] (M) -3) of the same compound?
The value was 1.246.

What about the “Mean normalized azi-ECL2 FRET response” value (mGluR2 [2]; log[Glutamate] (M) -4.1549) of the same compound?
Its value is 1.162.

And the “Mean normalized azi-ECL2 FRET response” value (mGluR2 [2]; log[Glutamate] (M) -4.52288)?
The value was 1.05.

What about the “Mean normalized azi-ECL2 FRET response” value (mGluR2 [2]; log[Glutamate] (M) -5) of the same compound?
Its value is 0.9021.

And the “Mean normalized azi-ECL2 FRET response” value (mGluR2 [2]; log[Glutamate] (M) -5.39794)?
The value was 0.6628.

What about the “Mean normalized azi-ECL2 FRET response” value (mGluR2 [2]; log[Glutamate] (M) -5.82391) of the same compound?
The value was 0.3586.

And the “Mean normalized azi-ECL2 FRET response” value (mGluR2 [2]; log[Glutamate] (M) -6.52288)?
Its value is 0.0516.

And the “Mean normalized azi-ECL2 FRET response” value (mGluR2 [2]; log[Glutamate] (M) -7)?
Its value is 0.00565.

What about the “Mean normalized azi-ECL2 FRET response” value (mGluR2 [2]; log[Glutamate] (M) -7.30103) of the same compound?
Its value is 0.

What about the “Mean normalized azi-ECL2 FRET response” value (mGluR2 [2]; log[Glutamate] (M) -7.69897) of the same compound?
Its value is 0.

What about the “Effect of modulator itself on intracellular calcium flux” value (mGluR2 [3]) of the same compound?
The value was “Direct activation of mGluR2”.

And the “SNAP-m2 - ΔEfficacy, Mean ΔEfficacy” value (mGluR2 [4]; [5])?
The value was 7.324.

What about the “SNAP-m2 FRET response (PAM DRC)” value (mGluR2 [4]; log[Glutamate] (M) -3) of the same compound?
The value was -1.073.

What about the “SNAP-m2 FRET response (PAM DRC), Mean” value (mGluR2 [4]; log[Glutamate] (M) -3) of the same compound?
The value was -1.073.

What about the “SNAP-m2 FRET response (PAM DRC)” value (mGluR2 [4]; log[Glutamate] (M) -4.1549) of the same compound?
The value was -1.073 and -1.043 and -1.045 and -1.173.

And the “SNAP-m2 FRET response (PAM DRC), Mean” value (mGluR2 [4]; log[Glutamate] (M) -4.1549)?
Its value is -1.083.

What about the “SNAP-m2 FRET response (PAM DRC)” value (mGluR2 [4]; log[Glutamate] (M) -4.52288) of the same compound?
The value was -1.073 and -1.028 and -1.065 and -1.205.

And the “SNAP-m2 FRET response (PAM DRC), Mean” value (mGluR2 [4]; log[Glutamate] (M) -4.52288)?
Its value is -1.093.

What about the “SNAP-m2 FRET response (PAM DRC)” value (mGluR2 [4]; log[Glutamate] (M) -5) of the same compound?
Its value is -0.9102 and -0.7407 and -0.8397 and -1.14.

And the “SNAP-m2 FRET response (PAM DRC), Mean” value (mGluR2 [4]; log[Glutamate] (M) -5)?
The value was -0.9075.

And the “SNAP-m2 FRET response (PAM DRC)” value (mGluR2 [4]; log[Glutamate] (M) -5.39794)?
The value was -0.5434 and -0.4233 and -0.4506 and -0.9619.

What about the “SNAP-m2 FRET response (PAM DRC), Mean” value (mGluR2 [4]; log[Glutamate] (M) -5.39794) of the same compound?
Its value is -0.5948.

And the “SNAP-m2 FRET response (PAM DRC)” value (mGluR2 [4]; log[Glutamate] (M) -5.82391)?
Its value is -0.2581 and -0.136 and -0.1638 and -0.657.

And the “SNAP-m2 FRET response (PAM DRC), Mean” value (mGluR2 [4]; log[Glutamate] (M) -5.82391)?
The value was -0.3038.

What about the “SNAP-m2 FRET response (PAM DRC)” value (mGluR2 [4]; log[Glutamate] (M) -6.52288) of the same compound?
The value was -0.05434 and 0 and -0.02048 and -0.1132.

What about the “SNAP-m2 FRET response (PAM DRC), Mean” value (mGluR2 [4]; log[Glutamate] (M) -6.52288) of the same compound?
Its value is -0.047.

And the “SNAP-m2 FRET response (PAM DRC)” value (mGluR2 [4]; log[Glutamate] (M) -7)?
The value was 0.

And the “SNAP-m2 FRET response (PAM DRC), Mean” value (mGluR2 [4]; log[Glutamate] (M) -7)?
Its value is 0.

And the “SNAP-m2 FRET response (PAM DRC)” value (mGluR2 [4]; log[Glutamate] (M) -7.30103)?
Its value is 0.

And the “SNAP-m2 FRET response (PAM DRC), Mean” value (mGluR2 [4]; log[Glutamate] (M) -7.30103)?
The value was 0.

And the “SNAP-m2 FRET response (PAM DRC)” value (mGluR2 [4]; log[Glutamate] (M) -7.69897)?
Its value is 0.

What about the “SNAP-m2 FRET response (PAM DRC), Mean” value (mGluR2 [4]; log[Glutamate] (M) -7.69897) of the same compound?
Its value is 0.

And the “Mean max response (normalized max ΔFRET)” value (mGluR2 [4]; SNAP-m2, 1 mM glutamate + 5 μM modulator, normalized to 1 mM glutamate)?
The value was 1.07.

What about the “Mean ΔPotency” value (mGluR2 [4]; SNAP-m2, 5μM modulator, (([modulator + glutamate]EC50 – [glutamate] EC50)/[glutamate] EC50) × 100) of the same compound?
The value was -67.8391.

And the “Mean ΔEfficacy” value (mGluR2 [4]; SNAP-m2, 5μM modulator, ([1 mM glutamate + modulator] - [1 mM glutamate]) × 100)?
Its value is 7.324.

What about the “Hill slope of glutamate titration” value (mGluR2 [4]; SNAP-m2 sensor, + 5 μM modulator) of the same compound?
The value was “–1.43”.

From paper PMC9299836 (eLife, 2022)
